Test results: the kinase profiling compilation of Christmann-Franck et al. (2016)

Legend:
Test in all cases: Caliper, Mobility shift assay off-chip
LYN (human) = LYN (human) (UniProt P07948)
AKT2 (human) = AKT2 (human) (UniProt P31751)
RPS6KA2 KD1 KD2 (human) = RPS6KA2 KD1 KD2 (human) (UniProt Q15349)
AURKC (human) = AURKC (human) (UniProt Q9UQB9)
CHEK2 (human) = CHEK2 (human) (UniProt O96017)
MAPK13 (human) = MAPK13 (human) (UniProt O15264)
STK3 (human) = STK3 (human) (UniProt Q13188)
CAMK2B (human) = CAMK2B (human) (UniProt Q13554)
CAMK2D (human) = CAMK2D (human) (UniProt Q13557)
ABL2 (human) = ABL2 (human) (UniProt P42684)
MAPK12 (human) = MAPK12 (human) (UniProt P53778)
FGFR3 (human) = FGFR3 (human) (UniProt P22607)
MAPKAPK3 (human) = MAPKAPK3 (human) (UniProt Q16644)
PRKCD (human) = PRKCD (human) (UniProt Q05655)
PRKD3 (human) = PRKD3 (human) (UniProt O94806)
CDK2 (human) = CDK2 (human) (UniProt P24941)
FLT3 (human) = FLT3 (human) (UniProt P36888)
PIM2 (human) = PIM2 (human) (UniProt Q9P1W9)
MARK2 (human) = MARK2 (human) (UniProt Q7KZI7)
DCLK2 (human) = DCLK2 (human) (UniProt Q8N568)
[1] = test system: FLT3 (human), P36888 [D835Y]
AKT1 (human) = AKT1 (human) (UniProt P31749)
MAPK1 (human) = MAPK1 (human) (UniProt P28482)
MAPKAPK5 (human) = MAPKAPK5 (human) (UniProt Q8IW41)
Sequence of MAPKAPK5 (human) (Q8IW41 whole entry, looked up): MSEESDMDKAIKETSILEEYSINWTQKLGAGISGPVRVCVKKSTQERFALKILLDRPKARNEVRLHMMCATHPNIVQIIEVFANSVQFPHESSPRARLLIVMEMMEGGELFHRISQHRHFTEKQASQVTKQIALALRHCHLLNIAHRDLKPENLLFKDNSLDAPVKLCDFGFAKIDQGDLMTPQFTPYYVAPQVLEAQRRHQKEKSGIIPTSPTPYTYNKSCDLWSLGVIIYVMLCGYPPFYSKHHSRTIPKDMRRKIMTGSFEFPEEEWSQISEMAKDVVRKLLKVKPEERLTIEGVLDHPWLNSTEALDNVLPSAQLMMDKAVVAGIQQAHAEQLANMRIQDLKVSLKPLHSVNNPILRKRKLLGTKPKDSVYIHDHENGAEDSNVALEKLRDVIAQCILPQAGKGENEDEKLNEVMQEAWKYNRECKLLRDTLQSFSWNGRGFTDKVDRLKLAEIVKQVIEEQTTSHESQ

Sequence of FGFR3 (human) (P22607 whole entry, looked up): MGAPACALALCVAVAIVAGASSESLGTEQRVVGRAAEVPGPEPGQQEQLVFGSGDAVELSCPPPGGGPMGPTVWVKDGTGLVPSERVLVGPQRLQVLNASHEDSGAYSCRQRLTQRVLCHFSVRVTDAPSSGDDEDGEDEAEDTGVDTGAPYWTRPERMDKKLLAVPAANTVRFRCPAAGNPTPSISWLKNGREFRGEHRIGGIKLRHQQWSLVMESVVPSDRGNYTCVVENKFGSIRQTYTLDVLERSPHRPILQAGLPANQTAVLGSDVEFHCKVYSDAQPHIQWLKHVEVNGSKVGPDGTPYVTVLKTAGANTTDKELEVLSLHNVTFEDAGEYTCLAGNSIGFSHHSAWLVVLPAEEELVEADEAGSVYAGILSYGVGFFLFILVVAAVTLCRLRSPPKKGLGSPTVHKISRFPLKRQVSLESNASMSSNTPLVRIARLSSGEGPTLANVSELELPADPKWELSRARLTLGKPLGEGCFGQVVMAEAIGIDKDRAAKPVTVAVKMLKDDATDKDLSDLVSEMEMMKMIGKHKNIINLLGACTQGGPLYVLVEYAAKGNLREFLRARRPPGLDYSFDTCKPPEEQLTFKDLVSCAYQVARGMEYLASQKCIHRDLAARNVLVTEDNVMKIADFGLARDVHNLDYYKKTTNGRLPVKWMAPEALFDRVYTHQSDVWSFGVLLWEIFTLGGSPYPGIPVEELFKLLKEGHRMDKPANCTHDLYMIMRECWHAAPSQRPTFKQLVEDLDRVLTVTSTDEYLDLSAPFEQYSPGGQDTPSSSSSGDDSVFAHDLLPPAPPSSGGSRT
Sequence of MARK2 (human) (Q7KZI7 whole entry, looked up): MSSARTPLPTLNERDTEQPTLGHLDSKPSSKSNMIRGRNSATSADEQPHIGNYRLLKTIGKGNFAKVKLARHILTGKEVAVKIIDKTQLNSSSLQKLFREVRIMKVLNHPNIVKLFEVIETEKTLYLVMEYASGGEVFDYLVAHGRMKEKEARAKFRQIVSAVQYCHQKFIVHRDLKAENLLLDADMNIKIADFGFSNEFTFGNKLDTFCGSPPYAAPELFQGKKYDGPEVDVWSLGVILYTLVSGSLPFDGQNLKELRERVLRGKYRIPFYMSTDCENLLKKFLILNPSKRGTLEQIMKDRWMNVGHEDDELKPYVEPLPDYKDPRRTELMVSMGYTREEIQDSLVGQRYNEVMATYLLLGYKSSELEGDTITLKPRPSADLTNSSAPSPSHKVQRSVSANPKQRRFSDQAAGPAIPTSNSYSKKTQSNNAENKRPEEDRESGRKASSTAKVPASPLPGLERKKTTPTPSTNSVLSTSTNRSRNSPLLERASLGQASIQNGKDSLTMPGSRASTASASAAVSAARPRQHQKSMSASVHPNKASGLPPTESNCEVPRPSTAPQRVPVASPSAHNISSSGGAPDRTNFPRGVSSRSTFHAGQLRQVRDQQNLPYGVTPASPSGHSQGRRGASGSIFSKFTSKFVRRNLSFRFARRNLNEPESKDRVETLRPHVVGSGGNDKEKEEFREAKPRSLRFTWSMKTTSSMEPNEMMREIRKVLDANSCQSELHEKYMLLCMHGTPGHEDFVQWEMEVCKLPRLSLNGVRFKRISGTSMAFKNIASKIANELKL
Sequence of MAPK13 (human) (O15264 whole entry, looked up): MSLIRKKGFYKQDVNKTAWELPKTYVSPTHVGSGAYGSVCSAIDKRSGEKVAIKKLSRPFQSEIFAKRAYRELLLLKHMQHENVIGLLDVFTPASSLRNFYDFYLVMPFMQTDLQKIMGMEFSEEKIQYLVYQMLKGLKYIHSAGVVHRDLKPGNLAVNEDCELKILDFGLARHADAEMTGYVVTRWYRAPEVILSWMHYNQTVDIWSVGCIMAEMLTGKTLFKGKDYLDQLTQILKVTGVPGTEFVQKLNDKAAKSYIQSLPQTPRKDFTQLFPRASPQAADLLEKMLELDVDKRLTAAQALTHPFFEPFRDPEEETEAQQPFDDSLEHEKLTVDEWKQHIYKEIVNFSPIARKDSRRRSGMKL
Sequence of DCLK2 (human) (Q8N568 whole entry, looked up): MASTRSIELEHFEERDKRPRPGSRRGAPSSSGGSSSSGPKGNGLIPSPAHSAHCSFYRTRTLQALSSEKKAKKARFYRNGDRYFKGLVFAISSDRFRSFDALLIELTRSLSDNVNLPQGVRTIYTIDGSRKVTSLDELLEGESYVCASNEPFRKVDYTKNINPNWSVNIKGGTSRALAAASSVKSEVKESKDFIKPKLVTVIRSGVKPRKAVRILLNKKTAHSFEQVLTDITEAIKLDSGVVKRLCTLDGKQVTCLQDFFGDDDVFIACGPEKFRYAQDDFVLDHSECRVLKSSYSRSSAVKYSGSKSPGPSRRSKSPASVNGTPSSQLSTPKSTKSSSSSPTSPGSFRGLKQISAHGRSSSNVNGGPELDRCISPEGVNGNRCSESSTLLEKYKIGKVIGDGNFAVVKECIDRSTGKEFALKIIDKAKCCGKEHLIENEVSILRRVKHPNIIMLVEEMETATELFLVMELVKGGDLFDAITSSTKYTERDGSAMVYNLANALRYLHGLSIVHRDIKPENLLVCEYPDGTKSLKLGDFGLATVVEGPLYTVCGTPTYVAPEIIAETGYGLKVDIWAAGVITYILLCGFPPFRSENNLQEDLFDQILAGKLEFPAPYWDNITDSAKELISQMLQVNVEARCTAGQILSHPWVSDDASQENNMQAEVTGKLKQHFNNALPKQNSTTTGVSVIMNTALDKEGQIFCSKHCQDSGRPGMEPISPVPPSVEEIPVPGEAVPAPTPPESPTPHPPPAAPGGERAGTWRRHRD
Sequence of AKT1 (human) (P31749 whole entry, looked up): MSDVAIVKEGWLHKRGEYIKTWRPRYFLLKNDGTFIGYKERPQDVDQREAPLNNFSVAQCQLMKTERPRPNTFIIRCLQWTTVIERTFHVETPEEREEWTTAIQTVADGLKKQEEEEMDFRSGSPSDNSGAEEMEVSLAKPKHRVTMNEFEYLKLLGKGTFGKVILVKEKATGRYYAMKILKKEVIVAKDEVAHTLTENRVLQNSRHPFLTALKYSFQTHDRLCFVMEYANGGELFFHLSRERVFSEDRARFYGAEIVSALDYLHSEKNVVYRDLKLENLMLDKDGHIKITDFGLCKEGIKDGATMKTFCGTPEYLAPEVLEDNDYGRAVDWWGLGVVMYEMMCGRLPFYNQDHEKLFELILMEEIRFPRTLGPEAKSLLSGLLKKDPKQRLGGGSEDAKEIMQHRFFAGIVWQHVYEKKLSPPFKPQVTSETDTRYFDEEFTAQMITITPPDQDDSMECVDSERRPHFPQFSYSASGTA
Sequence of PRKCD (human) (Q05655 whole entry, looked up): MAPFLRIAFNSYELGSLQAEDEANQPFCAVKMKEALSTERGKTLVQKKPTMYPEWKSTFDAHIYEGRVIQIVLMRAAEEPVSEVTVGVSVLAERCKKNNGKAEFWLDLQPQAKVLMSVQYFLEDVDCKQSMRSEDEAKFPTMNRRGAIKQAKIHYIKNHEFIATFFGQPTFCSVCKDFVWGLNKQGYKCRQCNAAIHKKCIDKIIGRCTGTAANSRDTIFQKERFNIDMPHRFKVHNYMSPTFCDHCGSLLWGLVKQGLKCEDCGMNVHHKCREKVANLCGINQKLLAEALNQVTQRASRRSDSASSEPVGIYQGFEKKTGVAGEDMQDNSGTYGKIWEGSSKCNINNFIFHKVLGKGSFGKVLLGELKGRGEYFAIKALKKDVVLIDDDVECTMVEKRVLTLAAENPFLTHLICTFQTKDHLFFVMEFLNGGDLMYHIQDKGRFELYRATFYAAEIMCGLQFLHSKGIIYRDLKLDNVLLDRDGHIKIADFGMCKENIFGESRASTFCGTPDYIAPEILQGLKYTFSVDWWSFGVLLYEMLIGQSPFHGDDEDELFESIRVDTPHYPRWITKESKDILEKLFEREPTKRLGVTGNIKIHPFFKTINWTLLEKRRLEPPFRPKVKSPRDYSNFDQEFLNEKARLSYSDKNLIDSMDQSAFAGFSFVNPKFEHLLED
Sequence of MAPKAPK3 (human) (Q16644 whole entry, looked up): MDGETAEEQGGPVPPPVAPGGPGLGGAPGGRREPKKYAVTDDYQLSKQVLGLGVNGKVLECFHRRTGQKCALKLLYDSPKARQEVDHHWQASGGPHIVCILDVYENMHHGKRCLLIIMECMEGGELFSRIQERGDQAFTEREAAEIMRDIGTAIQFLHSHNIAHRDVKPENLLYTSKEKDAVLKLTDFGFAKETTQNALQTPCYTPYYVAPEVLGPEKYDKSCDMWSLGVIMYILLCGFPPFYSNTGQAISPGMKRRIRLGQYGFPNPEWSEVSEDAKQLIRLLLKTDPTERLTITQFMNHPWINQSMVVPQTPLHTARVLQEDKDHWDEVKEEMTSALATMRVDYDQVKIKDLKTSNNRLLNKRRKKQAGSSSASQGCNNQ

Compound: O=c1c2cc(CS(=O)(=O)NCc3ccccn3)ccc2ccc2ncc(C3CCNCC3)cc12
- inhibition (LYN (human); compound 0.01 µM): -6%
- inhibition (LYN (human); compound 0.1 µM): -9.2%
- inhibition (AKT2 (human); compound 0.01 µM): -0.2%
- inhibition (AKT2 (human); compound 0.1 µM): -1.6%
- inhibition (RPS6KA2 KD1 KD2 (human); compound 0.01 µM): -8.9%
- inhibition (RPS6KA2 KD1 KD2 (human); compound 0.1 µM): 2%
- inhibition (AURKC (human); compound 0.01 µM): -15.8%
- inhibition (AURKC (human); compound 0.1 µM): 5.6%
- inhibition (CHEK2 (human); compound 0.01 µM): -5.2%
- inhibition (CHEK2 (human); compound 0.1 µM): -5.1%
- inhibition (MAPK13 (human); compound 0.01 µM): 5.5%
- inhibition (MAPK13 (human); compound 0.1 µM): -5.7%
- inhibition (STK3 (human); compound 0.01 µM): 1.5%
- inhibition (STK3 (human); compound 0.1 µM): 0.6%
- inhibition (CAMK2B (human); compound 0.01 µM): 79.2%
- inhibition (CAMK2B (human); compound 0.1 µM): -4.6%
- inhibition (CAMK2D (human); compound 0.01 µM): 1.7%
- inhibition (CAMK2D (human); compound 0.1 µM): 13.2%
- inhibition (ABL2 (human); compound 0.01 µM): 4.8%
- inhibition (ABL2 (human); compound 0.1 µM): 3.1%
- inhibition (MAPK12 (human); compound 0.01 µM): -3.3%
- inhibition (MAPK12 (human); compound 0.1 µM): -4.6%
- inhibition (FGFR3 (human); compound 0.01 µM): -38.6%
- inhibition (FGFR3 (human); compound 0.1 µM): -12.3%
- inhibition (MAPKAPK3 (human); compound 0.01 µM): -0.3%
- inhibition (MAPKAPK3 (human); compound 0.1 µM): -0.3%
- inhibition (PRKCD (human); compound 0.01 µM): 11%
- inhibition (PRKCD (human); compound 0.1 µM): 2.4%
- inhibition (PRKD3 (human); compound 0.01 µM): 3.2%
- inhibition (PRKD3 (human); compound 0.1 µM): -5.2%
- inhibition (CDK2 (human); compound 0.01 µM): -0.9%
- inhibition (CDK2 (human); compound 0.1 µM): -0.9%
- inhibition (FLT3 (human); compound 0.01 µM): 0.2%
- inhibition (FLT3 (human); compound 0.1 µM): 5%
- inhibition (PIM2 (human); compound 0.01 µM): 4.3%
- inhibition (PIM2 (human); compound 0.1 µM): 2.9%
- inhibition (MARK2 (human); compound 0.01 µM): -7%
- inhibition (MARK2 (human); compound 0.1 µM): -10%
- inhibition (DCLK2 (human); compound 0.01 µM): 8.7%
- inhibition (DCLK2 (human); compound 0.1 µM): -0.7%
- inhibition ([1]; compound 0.01 µM): 2.3%
- inhibition ([1]; compound 0.1 µM): 16.7%
- inhibition (AKT1 (human); compound 0.01 µM): 2.8%
- inhibition (AKT1 (human); compound 0.1 µM): -1.1%
- inhibition (MAPK1 (human); compound 0.01 µM): -2.5%
- inhibition (MAPK1 (human); compound 0.1 µM): -0.1%
- inhibition (MAPKAPK5 (human); compound 0.01 µM): -4.7%
- inhibition (MAPKAPK5 (human); compound 0.1 µM): 1.6%

Compound: Cn1cc(-c2cnc3ccc4ccc(CS(=O)(=O)CCc5ccccn5)cc4c(=O)c3c2)cn1
- inhibition (LYN (human); compound 0.1 µM): -7.4%
- inhibition (LYN (human); compound 1.0 µM): 5.9%
- inhibition (AKT2 (human); compound 0.1 µM): -0.1%
- inhibition (AKT2 (human); compound 1.0 µM): -0.5%
- inhibition (RPS6KA2 KD1 KD2 (human); compound 0.1 µM): 6.3%
- inhibition (RPS6KA2 KD1 KD2 (human); compound 1.0 µM): 8.8%
- inhibition (AURKC (human); compound 0.1 µM): 4.3%
- inhibition (AURKC (human); compound 1.0 µM): 55.5%
- inhibition (CHEK2 (human); compound 0.1 µM): -0.4%
- inhibition (CHEK2 (human); compound 1.0 µM): 4.5%
- inhibition (MAPK13 (human); compound 0.1 µM): -7.9%
- inhibition (MAPK13 (human); compound 1.0 µM): -7.1%
- inhibition (STK3 (human); compound 0.1 µM): 3.4%
- inhibition (STK3 (human); compound 1.0 µM): 0.7%
- inhibition (CAMK2B (human); compound 0.1 µM): 20.2%
- inhibition (CAMK2D (human); compound 0.1 µM): -16.1%
- inhibition (CAMK2D (human); compound 1.0 µM): -3.6%
- inhibition (ABL2 (human); compound 0.1 µM): -5.3%
- inhibition (ABL2 (human); compound 1.0 µM): 6.8%
- inhibition (MAPK12 (human); compound 0.1 µM): -6.6%
- inhibition (MAPK12 (human); compound 1.0 µM): 0.8%
- inhibition (FGFR3 (human); compound 0.1 µM): 34.5%
- inhibition (MAPKAPK3 (human); compound 0.1 µM): 1.8%
- inhibition (MAPKAPK3 (human); compound 1.0 µM): -5.4%
- inhibition (PRKCD (human); compound 0.1 µM): -36%
- inhibition (PRKCD (human); compound 1.0 µM): 2.1%
- inhibition (PRKD3 (human); compound 0.1 µM): -6.1%
- inhibition (PRKD3 (human); compound 1.0 µM): 3.6%
- inhibition (CDK2 (human); compound 0.1 µM): -6.3%
- inhibition (CDK2 (human); compound 1.0 µM): -3.4%
- inhibition (FLT3 (human); compound 0.1 µM): 1.3%
- inhibition (FLT3 (human); compound 1.0 µM): 24.2%
- inhibition (PIM2 (human); compound 0.1 µM): -2.1%
- inhibition (PIM2 (human); compound 1.0 µM): 4.7%
- inhibition (MARK2 (human); compound 0.1 µM): -1.3%
- inhibition (MARK2 (human); compound 1.0 µM): 6.5%
- inhibition (DCLK2 (human); compound 0.1 µM): -6.4%
- inhibition (DCLK2 (human); compound 1.0 µM): -2.5%
- inhibition ([1]; compound 0.1 µM): 2.5%
- inhibition ([1]; compound 1.0 µM): 13.3%
- inhibition (AKT1 (human); compound 0.1 µM): -1.3%
- inhibition (AKT1 (human); compound 1.0 µM): 0.7%
- inhibition (MAPK1 (human); compound 0.1 µM): -2.4%
- inhibition (MAPK1 (human); compound 1.0 µM): -1.9%
- inhibition (MAPKAPK5 (human); compound 0.1 µM): -20.9%
- inhibition (MAPKAPK5 (human); compound 1.0 µM): 4.4%
